Reference: US20170087106A1, “Method for supporting gut health” (priority 2015, published 2017)

Key:
Format in all cases: in vivo
ICAM-1 = experiment: TNBS rat colitis: colonic ICAM-1 mRNA by real-time PCR; details: colon, oral daily 7 days, mean ± SEM
Experimental: (§1) Female Wistar rats (180-200 g) were randomly assigned to nine groups (n=10). Three groups received treatment with CaPyr (20, 40 and 100 mg/kg); other three received treatment with ethyl pyruvate (20, 40 and 100 mg/kg); and the remaining was treated with sulphasalazine (30 mg/kg). All compounds were dissolved in 1 ml of carboxymethylcellulose (0.2%) in water solution, and administered daily by oral gavage. An untreated TNBS control group and a non-colitic group were included for reference, which received the vehicle used to administer the test compounds. Colonic inflammation was induced in control and treated groups as generally described (see Galvez et al. 2014). Briefly, rats were fasted overnight, anesthetized with halothane and given TNBS dissolved in 0.25 ml of 50% ethanol (v/v) by means of a Teflon cannula inserted 8 cm through the anus. During and after TNBS administration, the rats were kept in a head-down position until they recovered from anaesthesia, and then returned to their cages. Rats from the non-colitic group were administered intracolonically 0.25 ml of phosphate buffered saline instead of TNBS. The treatments were given from the day of the colitis induction until the sacrifice of the rats with an overdose of halothane, seven days later. Animal body weights, occurrence of diarrhoea, and water and food intake were recorded daily throughout all the experiments. Once the animals were sacrificed, the colon was removed aseptically and placed on an ice-cold plate, longitudinally opened and cleaned from their luminal contents with cold saline. Afterwards, it was weighed and its length measured under a constant load (2 g). Each colon was scored for macroscopically visible damage on a 0-10 scale by two observers unaware of the experiment, according to the criteria described before (see Galvez et al. 2014). Colon samples (0.5 cm^2) containing all the layers were taken from a region of the inflamed colon corresponding to the adjacent segment to the gross macroscopic damage and were fixed in 4% buffered formaldehyde for the histological studies. Equivalent colonic segments were also obtained from the non-colitic group. The colon was subsequently minced, aliquoted and kept frozen at −80° C. until biochemical determinations and RNA extraction was performed.
(§2) Analysis of gene expression in colonic samples by RT-qPCR Total RNA from colonic samples was isolated using Trizol® (Thermo Fisher Scientific Inc., Waltham, Mass. USA) following the manufacturer's protocol. All RNA samples were quantified with the Thermo Scientific NanoDrop™ 2000 Spectrophotometer (Thermo Fisher Scientific Inc., Waltham, Mass. USA) and […] of RNA were reverse transcribed using oligo(dT) primers (Promega, Southampton, UK).
(§3) Real time quantitative PCR amplification and detection was performed on optical-grade 48 well plates in an Eco™ Real-Time PCR System (Illumina, CA, USA) with 20 ng of cDNA, the KAPA SYBR® FAST qPCR Master Mix (Illumina, CA, USA) and specific primers at their annealing temperature (Ta). To normalize mRNA expression, the expression of the housekeeping gene, glyceraldehyde-3-phosphate dehydrogenase (GAPDH) was measured. The mRNA relative quantitation was calculated using the ΔΔCt method.

[1] = test system: TNBS experimental rat colitis; experiment: TNBS rat colitis: microscopic (histological) damage score; details: oral daily 7 days, mean ± SEM
Experimental: as §1
Cross-sections were selected and embedded in paraffin. Full-thickness sections of 5 μm were obtained at different levels and stained with haematoxylin and eosin. The histological damage was evaluated by a pathologist observer, who was blinded to the experimental groups, according to the criteria previously described by Galvez.

MCP-1 = experiment: TNBS rat colitis: colonic MCP-1 mRNA by real-time PCR; details: colon, oral daily 7 days, mean ± SEM
Experimental: as §1, §2, §3

[2] = test system: TNBS experimental rat colitis; experiment: TNBS rat colitis: colonic macroscopic damage score and weight/length ratio; details: for Damage Score (0-10) / Weight/length: TNBS rat colitis, oral daily 7 days, mean ± SEM; for Weight/length: colon
Experimental: as §1

IL-17 = experiment: TNBS rat colitis: colonic IL-17 mRNA by real-time PCR; details: colon, oral daily 7 days, mean ± SEM
Experimental: as §1, §2, §3

TFF-3 = experiment: TNBS rat colitis: colonic TFF-3 mRNA by real-time PCR; details: colon, oral daily 7 days, mean ± SEM
Experimental: as §1, §2, §3

CINC-1 = experiment: TNBS rat colitis: colonic CINC-1 mRNA by real-time PCR; details: colon, oral daily 7 days, mean ± SEM
Experimental: as §1, §2, §3

IL-1β [3] = experiment: TNBS rat colitis: colonic IL-1β mRNA by real-time PCR; details: colon, oral daily 7 days, mean ± SEM
Experimental: as §1, §2, §3

iNOS = experiment: TNBS rat colitis: colonic iNOS mRNA by real-time PCR; details: colon, oral daily 7 days, mean ± SEM
Experimental: as §1, §2, §3

glutathione (GSH) = experiment: TNBS rat colitis: colonic total glutathione (GSH) content; details: colonic tissue, oral daily 7 days, mean ± SEM
Experimental: as §1
(§4) Myeloperoxidase (MPO) activity was measured according to the technique described previously (Krawiszet al., 1984); the results were expressed as MPO units per gram of wet tissue; one unit of MPO activity was defined as that degrading 1 μmol hydrogen peroxide/min at 25° C. Total glutathione (GSH) content was quantified with the recycling assay described by Anderson (1985), and the results were expressed as nmol/g wet tissue. In order to evaluate tissue IL-1β levels, the colonic samples were homogenized in phosphate buffered saline supplemented with 0.1% sodium dodecyl sulfate (SDS), 0.1% sodium deoxycholate, 1% Triton X-100 and protease and phosphatase inhibitors (aprotinin, leupeptin and phenylmethylsulfonyl fluoride). The cytokine was quantified by enzyme-linked immunoabsorbent assay (R&D Systems Inc., Minneapolis, Minn., USA) and the results were expressed as pg/g wet tissue.

IL-6 = experiment: TNBS rat colitis: colonic IL-6 mRNA by real-time PCR; details: colon, oral daily 7 days, mean ± SEM
Experimental: as §1, §2, §3

IL-1β [4] = experiment: TNBS rat colitis: colonic IL-1β by ELISA; details: colonic tissue, oral daily 7 days, mean ± SEM
Experimental: as §1, §4

IL-12 = experiment: TNBS rat colitis: colonic IL-12 mRNA by real-time PCR; details: colon, oral daily 7 days, mean ± SEM
Experimental: as §1, §2, §3

IL-23 = experiment: TNBS rat colitis: colonic IL-23 mRNA by real-time PCR; details: colon, oral daily 7 days, mean ± SEM
Experimental: as §1, §2, §3

MUC-2 = experiment: TNBS rat colitis: colonic MUC-2 mRNA by real-time PCR; details: colon, oral daily 7 days, mean ± SEM
Experimental: as §1, §2, §3

myeloperoxidase (MPO) = experiment: TNBS rat colitis: colonic myeloperoxidase (MPO) activity; details: colonic tissue, oral daily 7 days, mean ± SEM
Experimental: as §1, §4

Substance: calcium pyruvate [CaPyr]
- ICAM-1 mRNA expression (ICAM-1; 20 mg/kg): 1.64 ± 0.25 fold increase
- ICAM-1 mRNA expression (ICAM-1; 40 mg/kg): 0.95 ± 0.19 fold increase
- ICAM-1 mRNA expression (ICAM-1; 100 mg/kg): 2.77 ± 0.44 fold increase
- Microscopic Damage Score (0-59) ([1]; 20 mg/kg): 27 ± 2
- Microscopic Damage Score (0-59) ([1]; 40 mg/kg): 18 ± 5
- Microscopic Damage Score (0-59) ([1]; 100 mg/kg): 13 ± 2
- MCP-1 mRNA expression (MCP-1; 20 mg/kg): 3.03 ± 0.49 fold increase
- MCP-1 mRNA expression (MCP-1; 40 mg/kg): 1.80 ± 0.37 fold increase
- MCP-1 mRNA expression (MCP-1; 100 mg/kg): 2.13 ± 0.41 fold increase
- Damage Score (0-10) ([2]; 20 mg/kg): 7.1 ± 0.4
- Damage Score (0-10) ([2]; 40 mg/kg): 5.7 ± 0.4
- Damage Score (0-10) ([2]; 100 mg/kg): 6.6 ± 0.6
- Weight/length ([2]; 20 mg/kg): 186.0 ± 22.8 mg/cm
- Weight/length ([2]; 40 mg/kg): 184.6 ± 25.1 mg/cm
- Weight/length ([2]; 100 mg/kg): 198.9 ± 15.0 mg/cm
- effect in TNBS-induced colitis (in words) ([2]; rats, 20, 40 and 100 mg/kg body weight, 7 days oral treatment): intestinal anti-inflammatory effects
- efficacy in TNBS colitis compared with the other treatments (in words) ([2]; rats, 7 days oral treatment): more effective than ethyl pyruvate and even better than the therapeutic drug Sulphasalazine
- IL-17 mRNA expression (IL-17; 20 mg/kg): 0.84 ± 0.09 fold increase
- IL-17 mRNA expression (IL-17; 40 mg/kg): 0.63 ± 0.27 fold increase
- IL-17 mRNA expression (IL-17; 100 mg/kg): 1.83 ± 0.48 fold increase
- TFF-3 mRNA expression (TFF-3; 20 mg/kg): 0.84 ± 0.23 fold increase
- TFF-3 mRNA expression (TFF-3; 40 mg/kg): 0.67 ± 0.17 fold increase
- TFF-3 mRNA expression (TFF-3; 100 mg/kg): 0.99 ± 0.19 fold increase
- CINC-1 mRNA expression (CINC-1; 20 mg/kg): 3.59 ± 0.49 fold increase
- CINC-1 mRNA expression (CINC-1; 40 mg/kg): 2.93 ± 0.57 fold increase
- CINC-1 mRNA expression (CINC-1; 100 mg/kg): 3.50 ± 0.90 fold increase
- IL-1β mRNA expression (IL-1β [3]; 20 mg/kg): 3.90 ± 0.61 fold increase
- IL-1β mRNA expression (IL-1β [3]; 40 mg/kg): 2.40 ± 0.61 fold increase
- IL-1β mRNA expression (IL-1β [3]; 100 mg/kg): 4.80 ± 0.90 fold increase
- iNOS mRNA expression (iNOS; 20 mg/kg): 10.37 ± 1.83 fold increase
- iNOS mRNA expression (iNOS; 40 mg/kg): 8.85 ± 3.36 fold increase
- iNOS mRNA expression (iNOS; 100 mg/kg): 9.15 ± 1.53 fold increase
- GSH (glutathione (GSH); 20 mg/kg): 389 ± 55 nmol/g tissue
- GSH (glutathione (GSH); 40 mg/kg): 675 ± 67 nmol/g tissue
- GSH (glutathione (GSH); 100 mg/kg): 768 ± 100 nmol/g tissue
- IL-6 mRNA expression (IL-6; 20 mg/kg): 5.41 ± 1.01 fold increase
- IL-6 mRNA expression (IL-6; 40 mg/kg): 3.20 ± 1.20 fold increase
- IL-6 mRNA expression (IL-6; 100 mg/kg): 4.61 ± 1.01 fold increase
- IL-1β (ELISA) (IL-1β [4]; 20 mg/kg): 1095.0 ± 165.0 ng/g tissue
- IL-1β (ELISA) (IL-1β [4]; 40 mg/kg): 765.0 ± 60.0 ng/g tissue
- IL-1β (ELISA) (IL-1β [4]; 100 mg/kg): 810.1 ± 120.0 ng/g tissue
- IL-12 mRNA expression (IL-12; 20 mg/kg): 1.09 ± 0.13 fold increase
- IL-12 mRNA expression (IL-12; 40 mg/kg): 0.66 ± 0.18 fold increase
- IL-12 mRNA expression (IL-12; 100 mg/kg): 1.62 ± 0.30 fold increase
- IL-23 mRNA expression (IL-23; 20 mg/kg): 1.47 ± 0.24 fold increase
- IL-23 mRNA expression (IL-23; 40 mg/kg): 1.02 ± 0.21 fold increase
- IL-23 mRNA expression (IL-23; 100 mg/kg): 1.98 ± 0.30 fold increase
- MUC-2 mRNA expression (MUC-2; 20 mg/kg): 0.50 ± 0.14 fold increase
- MUC-2 mRNA expression (MUC-2; 40 mg/kg): 0.53 ± 0.16 fold increase
- MUC-2 mRNA expression (MUC-2; 100 mg/kg): 0.56 ± 0.11 fold increase
- MPO (myeloperoxidase (MPO); 20 mg/kg): 48.2 ± 7.2 mU/g tissue
- MPO (myeloperoxidase (MPO); 40 mg/kg): 48.8 ± 8.2 mU/g tissue
- MPO (myeloperoxidase (MPO); 100 mg/kg): 57.7 ± 11.5 mU/g tissue
